Among the data in PubChem BioAssay AID651894 (Broad Institute, 2012) are IC50 values, retold here.

The structures appear in SMILES notation.

In the assay the test system is T. b. rhodesiense STIB900 bloodstream, Alamar blue, 72 h. As to the kind of experiment: African trypanosome bloodstream form growth inhibition – STIB900 strain, plate reader, dry powder, dose response (AID 651894).

Take `C[C@@H]1CN([C@@H](C)CO)C(=O)c2cccc(NC(=O)c3ccncc3)c2O[C@H]1CN(C)Cc1ccc(Oc2ccccc2)cc1`: the IC50 is 170 nM.
